Results as given in ChEMBL document CHEMBL4725382, “Uridine natural products: Challenging targets and inspiration for novel small molecule inhibitors” (Bioorg Med Chem, 2020).
In brackets after ≈: the same amount, converted by molar mass.

Tests used:
[1] = Inhibition of MraY in Staphylococcus aureus by fluorescence assay
Staphylococcus aureus = test: Inhibition of MraY in Staphylococcus aureus at 1 mM by fluorescence assay relative to control
[2] = Inhibition of Campylobacter concisus phosphoglycosyl transferase Pg1C
[3] = system: Mycobacterium tuberculosis; test: Antimycobacterial activity against Mycobacterium tuberculosis H37Rv ATCC 27294 after 14 days by resazurin reduction microplate assay; type: functional; conditions: H37Rv ATCC 27294, 336 h
[4] = Inhibition of Clostridium difficile phosphoglycosyl transferase; parameters: species or system Clostridioides difficile
[5] = Inhibition of Campylobacter jejuni phosphoglycosyl transferase Pg1D

SMILES	MIC50 [3]	also measured
CC(C)C[C@H](NC(=O)[C@H](CCCCN)NC(=O)N[C@H](C(=O)O)C(C)C)C(=O)NCCCN[C@@H](C[C@H]1O[C@@H](n2cc(F)c(=O)[nH]c2=O)[C@H](O)[C@@H]1O)C(=O)O		IC50 [1]: > 100 µM; inhibition (Staphylococcus aureus): 40%
CC(C)[C@H](NC(=O)N[C@@H](CCCCN)C(=O)N[C@@H](C)C(=O)NCCCN[C@@H](C[C@H]1O[C@@H](n2ccc(=O)[nH]c2=O)[C@H](O)[C@@H]1O)C(=O)O)C(=O)O		IC50 [1]: 95 µM
COc1ccc2cc(-c3cn(CC(=O)N[C@@H](CCC(=O)O)C(=O)NC[C@H]4O[C@@H](n5ccc(=O)[nH]c5=O)[C@H](O)[C@@H]4O)nn3)ccc2c1		IC50 [2]: 116 µM
C[C@@H]([C@H](NC(=O)[C@H](Cc1c[nH]c2ccccc12)NC(=O)N[C@@H](Cc1c[nH]c2ccccc12)C(=O)O)C(=O)NC[C@H]1C[C@@H](O)[C@H](n2ccc(=O)[nH]c2=O)O1)N(C)C(=O)CN	0.44 µM (≈ 0.359 µg/mL)	
Cc1cn([C@H]2C[C@H](O)[C@@H](C[C@H](NCCCNC(=O)[C@H](CC(C)C)NC(=O)[C@H](CCCCN)NC(=O)N[C@H](C(=O)O)C(C)C)C(=O)O)O2)c(=O)[nH]c1=O		IC50 [1]: > 100 µM; inhibition (Staphylococcus aureus): 38%
CC(C)C[C@H](NC(=O)N[C@@H](Cc1c[nH]c2ccccc12)C(=O)O)C(=O)N[C@H](C(=O)NC[C@H]1C[C@@H](O)[C@H](n2ccc(=O)[nH]c2=O)O1)[C@H](C)N(C)C(=O)[C@@H](N)[C@@H](C)O	1.35 µM (≈ 1.06 µg/mL)	
CC(C)C[C@H](NC(=O)N[C@@H](Cc1c[nH]c2ccccc12)C(=O)O)C(=O)N[C@H](C(=O)NC[C@H]1C[C@@H](O)[C@H](n2ccc(=O)[nH]c2=O)O1)[C@H](C)N(C)C(=O)[C@@H](N)CC1CCCCC1	1 µM (≈ 0.838 µg/mL)	
CC(C)C[C@H](NC(=O)[C@H](CCCCN)NC(=O)N[C@H](C(=O)O)C(C)C)C(=O)NCCCN[C@@H](C[C@H]1O[C@@H](n2ccc(=O)[nH]c2=O)[C@H](O)[C@@H]1O)C(=O)O		IC50 [1]: 2.5 µM
CC(C)C[C@H](NC(=O)N[C@@H](Cc1c[nH]c2ccccc12)C(=O)O)C(=O)N[C@H](C(=O)NC[C@H]1C[C@@H](O)[C@H](n2ccc(=O)[nH]c2=O)O1)[C@H](C)N(C)C(=O)[C@@H](N)CCCN	0.95 µM (≈ 0.759 µg/mL)	
O=C(O)CC[C@H](NC(=O)Cn1cc(-c2cccc(F)c2)nn1)C(=O)NC[C@H]1O[C@@H](n2ccc(=O)[nH]c2=O)[C@H](O)[C@@H]1O		IC50 [2]: 72 µM
CC(C)C[C@H](NC(=O)N[C@@H](Cc1c[nH]c2ccccc12)C(=O)O)C(=O)N[C@H](C(=O)NC[C@H]1C[C@@H](O)[C@H](n2ccc(=O)[nH]c2=O)O1)[C@H](C)N(C)C(=O)[C@@H](N)CC(=O)O	9.8 µM (≈ 7.84 µg/mL)	
C[C@@H]([C@H](NC(=O)[C@H](Cc1ccc(O)cc1)NC(=O)N[C@@H](Cc1c[nH]c2ccccc12)C(=O)O)C(=O)NC[C@H]1C[C@@H](O)[C@H](n2ccc(=O)[nH]c2=O)O1)N(C)C(=O)CN	0.52 µM (≈ 0.412 µg/mL)	
C[C@@H]([C@H](NC(=O)[C@@H](NC(=O)N[C@@H](Cc1c[nH]c2ccccc12)C(=O)O)c1ccccc1)C(=O)NC[C@H]1C[C@@H](O)[C@H](n2ccc(=O)[nH]c2=O)O1)N(C)C(=O)CN	> 6.26 µM	
O=c1ccn([C@@H]2O[C@H](CNc3c(NCc4cccc(F)c4)c(=O)c3=O)[C@@H](O)[C@H]2O)c(=O)[nH]1		IC50 [4]: 174 µM
CC(C)C[C@H](NC(=O)N[C@@H](Cc1c[nH]c2ccccc12)C(=O)O)C(=O)N[C@H](C(=O)NC[C@H]1C[C@@H](O)[C@H](n2ccc(=O)[nH]c2=O)O1)[C@H](C)N(C)C(=O)[C@@H](N)Cc1cccc(O)c1	0.3 µM (≈ 0.254 µg/mL)	
CC(C)C[C@H](NC(=O)N[C@@H](Cc1c[nH]c2ccccc12)C(=O)O)C(=O)N[C@H](C(=O)NC[C@H]1C[C@@H](O)[C@H](n2ccc(=O)[nH]c2=O)O1)[C@H](C)N(C)C(=O)[C@@H](N)C1CCCCC1	1.1 µM (≈ 0.906 µg/mL)	

SMILES	MIC50 [3]	also measured
CC(C)C[C@H](NC(=O)[C@H](CCCCN)NC(=O)N[C@H](C(=O)O)C(C)C)C(=O)NCCCN[C@@H](C[C@H]1O[C@@H](n2ccc(=O)[nH]c2=O)C[C@@H]1O)C(=O)O		IC50 [1]: 4.6 µM
CC(C)C[C@H](NC(=O)N[C@@H](Cc1c[nH]c2ccccc12)C(=O)O)C(=O)N[C@H](C(=O)NC[C@H]1C[C@@H](O)[C@H](n2ccc(=O)[nH]c2=O)O1)[C@H](C)N(C)C(=O)[C@@H](N)Cc1ccc2ccccc2c1	3 µM (≈ 2.65 µg/mL)	
C[C@@H]([C@H](NC(=O)[C@H](CCCCN)NC(=O)N[C@@H](Cc1c[nH]c2ccccc12)C(=O)O)C(=O)NC[C@H]1C[C@@H](O)[C@H](n2ccc(=O)[nH]c2=O)O1)N(C)C(=O)CN	0.7 µM (≈ 0.53 µg/mL)	
C[C@@H]([C@H](NC(=O)[C@H](CC1CCCCC1)NC(=O)N[C@@H](Cc1c[nH]c2ccccc12)C(=O)O)C(=O)NC[C@H]1C[C@@H](O)[C@H](n2ccc(=O)[nH]c2=O)O1)N(C)C(=O)CN	0.08 µM (≈ 0.0625 µg/mL)	
CC(C)C[C@H](NC(=O)[C@H](C)NC(=O)N[C@H](C(=O)O)C(C)C)C(=O)NCCCN[C@@H](C[C@H]1O[C@@H](n2ccc(=O)[nH]c2=O)[C@H](O)[C@@H]1O)C(=O)O		IC50 [1]: 14 µM
CC(C)C[C@H](NC(=O)[C@H](CCCCN)NC(=O)N[C@@H](C)C(=O)O)C(=O)NCCCN[C@@H](C[C@H]1O[C@@H](n2ccc(=O)[nH]c2=O)[C@H](O)[C@@H]1O)C(=O)O		IC50 [1]: 21 µM
C[C@@H]([C@H](NC(=O)[C@H](Cc1ccc(C(F)(F)F)cc1)NC(=O)N[C@@H](Cc1c[nH]c2ccccc12)C(=O)O)C(=O)NC[C@H]1C[C@@H](O)[C@H](n2ccc(=O)[nH]c2=O)O1)N(C)C(=O)CN	0.2 µM (≈ 0.169 µg/mL)	
C[C@@H]([C@H](NC(=O)[C@H](Cc1cccnc1)NC(=O)N[C@@H](Cc1c[nH]c2ccccc12)C(=O)O)C(=O)NC[C@H]1C[C@@H](O)[C@H](n2ccc(=O)[nH]c2=O)O1)N(C)C(=O)CN	0.98 µM (≈ 0.761 µg/mL)	
C[C@@H](O)[C@H](NC(=O)N[C@@H](Cc1c[nH]c2ccccc12)C(=O)O)C(=O)N[C@H](C(=O)NC[C@H]1C[C@@H](O)[C@H](n2ccc(=O)[nH]c2=O)O1)[C@H](C)N(C)C(=O)CN	2.8 µM (≈ 2.04 µg/mL)	
CC(C)[C@H](NC(=O)N[C@@H](Cc1c[nH]c2ccccc12)C(=O)O)C(=O)N[C@H](C(=O)N/C=C1/C[C@@H](O)[C@H](n2ccc(=O)[nH]c2=O)O1)[C@H](C)N(C)C(=O)[C@@H](N)Cc1cccc(O)c1		MIC [3]: 9.5 µM (≈ 7.9 µg/mL)
O=C(Cn1cc(-c2cccc(F)c2)nn1)NC[C@H]1O[C@@H](n2ccc(=O)[nH]c2=O)[C@H](O)[C@@H]1O		IC50 [5]: 35 µM
CC(C)C[C@H](NC(=O)[C@H](CCCCN)NC(=O)N[C@H](C(=O)O)C(C)C)C(=O)NCCCN[C@@H](C[C@H]1O[C@@H](N2CCC(=O)NC2=O)[C@H](O)[C@@H]1O)C(=O)O		IC50 [1]: 27 µM
CCCCC[C@H](NC(=O)N[C@@H](Cc1c[nH]c2ccccc12)C(=O)O)C(=O)N[C@H](C(=O)NC[C@H]1C[C@@H](O)[C@H](n2ccc(=O)[nH]c2=O)O1)[C@H](C)N(C)C(=O)CN	0.51 µM (≈ 0.385 µg/mL)	
CC(C)C[C@H](NC(=O)N[C@@H](Cc1c[nH]c2ccccc12)C(=O)O)C(=O)N[C@H](C(=O)NC[C@H]1C[C@@H](O)[C@H](n2ccc(=O)[nH]c2=O)O1)[C@H](C)N(C)C(=O)[C@@H](N)CCCCN	1.35 µM (≈ 1.1 µg/mL)	
C[C@@H]([C@H](NC(=O)[C@@H](NC(=O)N[C@@H](Cc1c[nH]c2ccccc12)C(=O)O)C1CCCCC1)C(=O)NC[C@H]1C[C@@H](O)[C@H](n2ccc(=O)[nH]c2=O)O1)N(C)C(=O)CN	0.51 µM (≈ 0.392 µg/mL)	
C[C@@H]([C@H](NC(=O)[C@H](Cc1ccccc1)NC(=O)N[C@@H](Cc1c[nH]c2ccccc12)C(=O)O)C(=O)NC[C@H]1C[C@@H](O)[C@H](n2ccc(=O)[nH]c2=O)O1)N(C)C(=O)CN	0.26 µM (≈ 0.202 µg/mL)	
